Test results published in patent US20230116196A1, “METHOD OF TREATING CNS DISORDERS WITH NEU[…] GABAERGIC COMPOUNDS” (priority 2017, published 2023).
Read-outs that look alike come from different tables or passages of the source.

Legend:
α4β3δ GABAA receptors = molecular target: T1, α4β3δ GABAA receptors (Homo sapiens, UniProt O14764+P28472+P48169); test: Whole-cell patch clamp: potentiation of GABA EC20 currents at recombinant α4β3δ GABAA receptors; assay type: cell-based
T1 construct: expressed in transfected cells; host or cells: CHO cells, transiently transfected (Lipofectamine)
T1 sequence (P48169 36-554): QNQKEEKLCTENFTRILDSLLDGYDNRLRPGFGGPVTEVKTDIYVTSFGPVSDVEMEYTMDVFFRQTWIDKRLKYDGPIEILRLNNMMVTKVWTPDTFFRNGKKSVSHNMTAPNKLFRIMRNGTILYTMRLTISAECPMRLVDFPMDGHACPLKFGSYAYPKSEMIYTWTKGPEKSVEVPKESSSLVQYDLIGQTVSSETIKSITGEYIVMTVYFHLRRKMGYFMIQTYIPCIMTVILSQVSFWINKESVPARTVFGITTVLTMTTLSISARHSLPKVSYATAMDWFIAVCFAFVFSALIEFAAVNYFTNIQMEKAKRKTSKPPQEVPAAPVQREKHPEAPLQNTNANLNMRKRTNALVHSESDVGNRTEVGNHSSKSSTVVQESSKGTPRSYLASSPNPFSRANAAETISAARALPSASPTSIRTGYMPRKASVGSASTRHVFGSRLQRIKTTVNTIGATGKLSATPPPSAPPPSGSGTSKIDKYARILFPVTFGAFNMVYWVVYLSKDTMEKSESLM
T1 sequence (P28472 26-473): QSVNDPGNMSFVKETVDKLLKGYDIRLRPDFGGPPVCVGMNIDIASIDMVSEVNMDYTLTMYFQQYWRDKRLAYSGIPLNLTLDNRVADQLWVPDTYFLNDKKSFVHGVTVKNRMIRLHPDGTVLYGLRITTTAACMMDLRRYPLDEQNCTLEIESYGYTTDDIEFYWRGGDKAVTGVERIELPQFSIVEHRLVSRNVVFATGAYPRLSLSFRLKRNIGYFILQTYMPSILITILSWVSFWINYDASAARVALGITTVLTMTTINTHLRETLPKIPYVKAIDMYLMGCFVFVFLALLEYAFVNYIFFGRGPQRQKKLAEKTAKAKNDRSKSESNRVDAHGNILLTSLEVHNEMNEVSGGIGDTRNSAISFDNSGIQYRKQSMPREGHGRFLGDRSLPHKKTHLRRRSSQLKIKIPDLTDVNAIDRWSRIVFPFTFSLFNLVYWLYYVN
T1 sequence (O14764 25-452): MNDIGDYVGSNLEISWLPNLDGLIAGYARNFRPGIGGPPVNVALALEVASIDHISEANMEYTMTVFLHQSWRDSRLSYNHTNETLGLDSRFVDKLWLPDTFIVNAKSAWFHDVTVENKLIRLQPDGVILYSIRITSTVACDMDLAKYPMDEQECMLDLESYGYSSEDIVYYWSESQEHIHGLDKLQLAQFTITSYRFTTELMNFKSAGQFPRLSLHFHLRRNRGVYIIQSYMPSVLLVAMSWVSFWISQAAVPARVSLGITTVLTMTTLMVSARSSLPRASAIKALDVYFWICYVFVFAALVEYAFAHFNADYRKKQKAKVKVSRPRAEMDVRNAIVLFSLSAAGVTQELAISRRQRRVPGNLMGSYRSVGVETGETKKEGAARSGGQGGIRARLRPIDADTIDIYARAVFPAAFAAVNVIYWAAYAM
Method: (§1) Cellular electrophysiology was used to measure the pharmacological properties of ALLO, ganaxolone and SGE-516 in heterologous cell systems. Compounds were tested for their ability to affect GABA mediated currents at a submaximal agonist dose (GABA EC20=2 μM).
(§2) LTK cells were stably transfected with the α1β2γ2 subunits of the GABA receptor and CHO cells are transiently transfected with the α4β3γ subunits via the Lipofecatamine method. Cells were passaged at a confluence of about 50-80% and then seeded onto 35 mm sterile culture dishes containing 2 ml culture complete medium without antibiotics or antimycotics. Cells were cultivated at a density that enabled the recording of single cells without visible connections to other cells.
(§3) Whole-cell currents were measured with HEKA EPC-10 amplifiers using PatchMaster software. Bath solution for all experiments contained (in mM): NaCl 137, KCl 4, CaCl2 1.8, MgCl2 1, HEPES 10, D-Glucose 10, pH 7.4 with NaOH. Intracellular (pipette) solution contained (in mM): KCl 130, MgCl2 1, Mg-ATP 5, HEPES 10, EGTA 5, pH 7.2 with KOH. During experiments, cells and solutions were maintained at room temperature (19° C.-30° C.). For manual patchclamp recordings, cell culture dishes were placed on the dish holder of the microscope and continuously perfused (1 ml/min) with bath solution. After formation of a Gigaohm seal between the patch electrode and the cell (pipette resistance range: 2.5 MΩ-6.0MΩ; seal resistance range: >1 GΩ) the cell membrane across the pipette tip was ruptured to assure electrical access to the cell interior (whole-cell patch configuration).
(§4) Cells were voltage-clamped at a holding potential of −80 mV. GABAA receptors were activated by 2 μM GABA and compounds were sequentially applied at increasing concentrations for 30 s prior to a 2 s application of GABA. GABA and compounds were applied to cells via the Dynaflow perfusion system (Cellectricon, Sweden). Test compounds were dissolved in DMSO to form 10 mM stock solution and serially diluted to 0.01, 0.1, 1, and 10 μM in bath solution. There was no effect on GABA currents when DMSO was applied to cells at its maximal concentration in solution (0.1%). All concentrations of test compound were tested on each cell. The relative percentage potentiation was defined as the peak amplitude in response to GABA EC20 in the presence of test compound divided by the peak amplitude in response to GABA EC20 alone, multiplied by 100.
ALLO and ganaxolone are known PAMs of both synaptic and extrasynaptic GABAAR-mediated currents. The ability of candidate compound SGE-516 to act as a PAM was compared to ALLO and ganaxolone using the whole-cell recordings of recombinant human GABAA receptors expressed in mammalian cells. The α1β2γ2 or α4β3δ subunit combinations were chosen as representatives of typical synaptic and extrasynaptic GABAA receptors respectively. Similar to previous reports (Botella et al., 2015), ALLO, ganaxolone and SGE-516 allosterically potentiated currents induced by EC20 concentration of GABA in a concentration-dependent manner in both synaptic- and extrasynaptic-type GABAARs.

α1β2γ2 GABAA receptors = molecular target: T2, α1β2γ2 GABAA receptors (Homo sapiens, UniProt P14867+P18507+P47870); test: Whole-cell patch clamp: potentiation of GABA EC20 currents at recombinant α1β2γ2 GABAA receptors; assay type: cell-based
T2 construct: expressed in transfected cells; host or cells: LTK cells, stably transfected
T2 sequence (P14867 28-456): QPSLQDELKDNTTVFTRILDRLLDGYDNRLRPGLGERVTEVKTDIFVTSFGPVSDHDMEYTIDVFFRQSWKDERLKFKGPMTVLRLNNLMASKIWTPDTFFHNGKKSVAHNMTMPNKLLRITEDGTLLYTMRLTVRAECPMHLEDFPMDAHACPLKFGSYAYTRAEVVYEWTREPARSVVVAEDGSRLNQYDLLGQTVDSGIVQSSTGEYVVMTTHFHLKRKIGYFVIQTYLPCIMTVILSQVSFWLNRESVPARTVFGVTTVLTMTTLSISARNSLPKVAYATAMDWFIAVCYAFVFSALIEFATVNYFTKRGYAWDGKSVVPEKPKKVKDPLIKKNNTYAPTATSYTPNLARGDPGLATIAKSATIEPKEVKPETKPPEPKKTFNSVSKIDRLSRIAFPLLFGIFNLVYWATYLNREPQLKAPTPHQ
T2 sequence (P47870 25-512 limits assumed): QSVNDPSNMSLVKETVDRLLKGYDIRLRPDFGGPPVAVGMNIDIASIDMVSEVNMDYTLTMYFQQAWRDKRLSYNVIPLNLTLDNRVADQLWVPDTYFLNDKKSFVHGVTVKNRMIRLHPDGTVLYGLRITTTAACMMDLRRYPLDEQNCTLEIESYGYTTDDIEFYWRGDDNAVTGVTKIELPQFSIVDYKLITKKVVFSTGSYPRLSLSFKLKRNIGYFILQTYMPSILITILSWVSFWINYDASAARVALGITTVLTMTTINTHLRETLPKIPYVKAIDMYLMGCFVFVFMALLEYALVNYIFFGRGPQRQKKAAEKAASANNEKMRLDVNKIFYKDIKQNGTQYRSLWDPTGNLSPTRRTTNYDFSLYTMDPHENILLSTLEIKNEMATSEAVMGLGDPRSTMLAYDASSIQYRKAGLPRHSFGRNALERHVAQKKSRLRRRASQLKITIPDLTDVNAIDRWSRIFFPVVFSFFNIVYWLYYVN
T2 sequence (P18507 40-475): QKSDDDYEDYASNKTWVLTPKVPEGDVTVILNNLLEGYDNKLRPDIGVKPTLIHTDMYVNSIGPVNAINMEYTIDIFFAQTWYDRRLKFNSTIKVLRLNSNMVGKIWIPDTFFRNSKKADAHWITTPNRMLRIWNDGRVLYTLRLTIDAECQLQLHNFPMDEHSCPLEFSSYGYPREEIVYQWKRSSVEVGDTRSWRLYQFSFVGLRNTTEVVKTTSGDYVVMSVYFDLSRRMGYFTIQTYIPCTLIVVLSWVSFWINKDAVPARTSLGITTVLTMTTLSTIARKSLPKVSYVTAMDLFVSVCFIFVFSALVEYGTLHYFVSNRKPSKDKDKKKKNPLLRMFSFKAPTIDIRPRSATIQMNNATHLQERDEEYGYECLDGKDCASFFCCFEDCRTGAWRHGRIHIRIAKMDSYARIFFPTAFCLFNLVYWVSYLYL
Method: as §1, §2, §3
as §4, with “There was no effect on GABA currents when DMSO was applied to cells at its maximal concentration in solution (0.1%).” left out
ALLO and ganaxolone are known PAMs of both synaptic and extrasynaptic GABAAR-mediated currents. […] The α1β2γ2 or α4β3δ subunit combinations were chosen as representatives of typical synaptic and extrasynaptic GABAA receptors respectively.

[1] = system: GABAA receptor α4 and β3 subunits; test: Biotinylation: cell surface levels of GABAA receptor subunits in hippocampal slices; assay type: cell-based, mouse; conditions: for GABAA-β3-containing receptors at the plasma membrane / cell surface stability of the β3 subunit: acute hippocampal slices
Method: Hippocampi were dissected out of acute slices from 8 to 12 week old C57/Bl6 mice and lysed with […] including: 20 mM Tris-HCl, 150 mM NaCl, 5 mM EDTA, 10 mM NaF, 2 mM Na3VO4, 10 mM pyrophosphate, 0.1% SDS and 1% Triton after drug treatment. The β3 subunit was isolated using immunoprecipitation with β3 antibodies, after correction for protein content and the specific activity of labeling. Results were attained by SDS/PAGE followed by autoradiography (Abramian et al., 2010). For biotinylation experiments hippocampi were dissected out of acute slices from 8 to 12 week old C57/Bl6 mice and incubated in artificial cerebrospinal fluid (ACSF) described above at 30° C. for 1 h for recovery before experimentation. Slices were then placed on ice and incubated for 30 min with 1 mg/mL NHS-SS-biotin (Pierce). Excess biotin was removed by a 50 mM glycine quenching buffer, followed by washing of slices three times in ice-cold ACSF. The tissue was snap frozen on dry ice for 5 min, thawed at 4° C. and lysed. The lysates were solubilized with 2% Triton at 4° C. on a rotating wheel for 1 h. The insoluble material was removed by centrifugation, and 350-500 μg of protein lysate were incubated with NeutrAvidin beads (Pierce) for 18-24 h at 4° C. Bound material was eluted with sample buffer and subjected to SDS/PAGE and then immunoblotted with the indicated antibodies. Blots were then quantified using the CCD-based ChemiDoc XRS ? system. Antibodies against the β3 subunit and the phospho-β3 antibody were generated and verified by the laboratory of S.J.M. (Vien et al., 2015).
Hippocampal slices were treated as outlined above. Treated slices were then subject to biotinylation and lysis, and surface fractions were isolated on immobilized avidin. Surface (S) and total (T) fractions were immunoblotted with α4 and β3 subunit antibodies.
The ratio of surface/total (S/T) immunoreactivity was then normalized to levels seen in control (100%).

[2] = potentiation of current at GABA EC20 (2 μM), n = 3

SMILES | pEC50 ± S.E.M., α4β3δ (α4β3δ GABAA receptors; [2]) | pEC50 ± S.E.M., α1β2γ2 (α1β2γ2 GABAA receptors; [2]) | GABAA-β3-containing receptors at the plasma membrane / cell surface stability of the β3 subunit ([1]; 100 nM) | EC50 (α1β2γ2 GABAA receptors) | EC50 (α4β3δ GABAA receptors; [2]) | Emax ± S.E.M., α4β3δ (α4β3δ GABAA receptors; relative percentage potentiation of GABA EC20 current) | EC50 (α1β2γ2 GABAA receptors; potentiation of current at GABA EC20 (2 μM), n = 3, read-out: EC50, α1β2γ2) | Emax (α1β2γ2 GABAA receptors; relative percentage potentiation of GABA EC20 current, read-out: Emax ± S.E.M., α1β2γ2) | plasma membrane levels of GABAARs containing the α4 and β subunits, S/T normalized to control (100%) ([1]; WT mice slices, 100 nM, 20 min) | plasma membrane accumulation of both the α4 and β3 subunits ([1]; hippocampal slices, surface/total)
CC(=O)[C@H]1CC[C@H]2[C@@H]3CC[C@H]4C[C@H](O)CC[C@]4(C)[C@H]3CC[C@]12C [ALLO, Allopregnanolone] | 7.2 ± 0.3 | 6.9 ± 0.2 | increases |  |  |  |  |  |  | 
CC(=O)[C@H]1CC[C@H]2[C@@H]3CC[C@H]4C[C@](C)(O)CC[C@]4(C)[C@H]3CC[C@]12C [Ganaxolone] | 7.0 ± 0.1 |  |  | 251 nM |  |  |  |  |  | 
C[C@@]1(O)CC[C@@]2(C)[C@H](CC[C@@H]3[C@@H]2CC[C@]2(C)[C@@H](C(=O)Cn4nccn4)CC[C@@H]32)C1 [SGE-516] |  |  | increases |  | 193 nM | 505 ± 19% | 61 nM | 219% | 175-185% | increased
